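In this assay, cells in 96-well plates receive the compound at five concentrations for 48 hours. Endpoints are linearly interpolated between the surrounding concentrations. TGI: concentration producing complete growth inhibition.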
Experiments:
Assay in all cases: growth of human tumour cells (NCI), 48 h
[1] = tested on: COLO 205 colon
[2] = tested on: HCT-15 colon
[3] = tested on: MALME-3M melanoma
[4] = tested on: KM12 colon
[5] = tested on: HL-60(TB) leukemia
[6] = tested on: SK-MEL-2 melanoma
[7] = tested on: SK-OV-3 ovarian
[8] = tested on: DU-145 prostate
[9] = tested on: OVCAR-5 ovarian
[10] = tested on: SNB-75 CNS
[11] = tested on: RPMI-8226 leukemia
[12] = tested on: CCRF-CEM leukemia
[13] = tested on: NCI/ADR-RES ovarian
[14] = tested on: HCC-2998 colon
[15] = tested on: MDA-MB-435
[16] = tested on: NCI-H460 lung
[17] = tested on: MDA-MB-231 breast
[18] = tested on: OVCAR-3 ovarian
[19] = tested on: SW-620 colon
[20] = tested on: OVCAR-8 ovarian
[21] = tested on: HS 578T breast
[22] = tested on: RXF 393 renal
[23] = tested on: SN12C renal
[24] = tested on: SR leukemia
[25] = tested on: UACC-62 melanoma
[26] = tested on: MOLT-4 leukemia
[27] = tested on: A549 NSCLC
[28] = tested on: MDA-N
[29] = tested on: HT29 colon
[30] = tested on: NCI-H23 lung
[31] = tested on: UO-31 renal
[32] = tested on: K-562 leukemia
[33] = tested on: HOP-62 NSCLC
[34] = tested on: M14 melanoma
[35] = tested on: HOP-92 NSCLC
[36] = tested on: SNB-19 CNS
[37] = tested on: PC-3 prostate
[38] = tested on: SF-268 CNS
[39] = tested on: LOX IMVI melanoma
[40] = tested on: BT-549 breast
[41] = tested on: HCT-116 colon
[42] = tested on: CAKI-1 renal
[43] = tested on: TK-10 renal
[44] = tested on: IGROV1 ovarian
[45] = tested on: ACHN renal
[46] = tested on: NCI-H226 lung
[47] = tested on: SK-MEL-28 melanoma
[48] = tested on: U251 CNS
[49] = tested on: NCI-H522 lung
[50] = tested on: 786-0 renal
[51] = tested on: SF-539 CNS
[52] = tested on: SF-295 CNS
[53] = tested on: MCF7 breast
[54] = tested on: OVCAR-4 ovarian
[55] = tested on: UACC-257 melanoma
[56] = tested on: T-47D breast
[57] = tested on: A498 renal
[58] = tested on: SK-MEL-5 melanoma
[59] = tested on: EKVX NSCLC

Measured: TGI

CC(C)N1CC2CN(Cc3ccccc3)CC(C1)C2=O
not listed: [56] | [57] | [58] | [59]
> 100 µM: all other assays above

CC(C)C1OC(N)=C(C#N)C1(C#N)C#N (stereo unspecified)
91.4 µM: [12]
79.2 µM: [11]
13.5 µM: [42]
35.5 µM: [5]
96.4 µM: [55]
58 µM: [14]
not listed: [2] | [16] | [18] | [24] | [26] | [40] | [47] | [54]
> 100 µM: all other assays above
